Experimental data: patent US4667027A, “Cephem compounds and their production” (Takeda Chemical Industries, Ltd., priority 1984, dated 1987)
≈ marks a conversion by molar mass, not a printed value.

Test system: Escherichia coli PG8
Assay: β-lactamase stability test, growth inhibition zone, no β-lactamase added
Assay type: cell-based
Conditions: β-lactamase not added; test organism Escherichia coli PG8; drug 100 μg/ml; nutrient agar pH 7.0; read-out: diameter of growth inhibition zone
Description: (§1) TAN-591A, B, C are stable to various β-lactamases. The results of stability test of the antibiotic to two β-lactamases employing Escherichia coli PG8 as a test organism are shown in Table 5. […]

SMILES	zone of inhibition at 100 µg/mL [mm]
NCCCCC(NC(=O)C(N)CO)C(O)CC(=O)OCC1=C(C(=O)O)N2C(=O)C(NC=O)(NC(=O)CCCC(N)C(=O)O)C2SC1 (centres unmarked) [TAN-591A]	22.5

Test system: Staphylococcus aureus FDA 209P
Assay: Antimicrobial spectrum, minimal inhibitory concentration (agar dilution)
Assay type: cell-based
Conditions: FDA209P, hydrochloride, inoculum 1 loopful of about 10^6/ml
Description: (§2) *Culture medium: 17.5 g of Bacto antibiotic medium 3 (Difco), 5 g of Bact
(§3) yeast extract (Difco), 20 g of Bacto agar (Difco), 1 l of distilled water
(§4) The amount of inoculated microorganism: 1 loopful of about 10^6 /ml o
(§5) microorganism suspension.
(§6) *Medium: Bacto antibiotic medium (Difco) 17.5 g, Bacto yeast extract
(§7) (Difco) 5 g, Bacto agar (Difco) 20 g, distilled water 1 l, pH not

SMILES	MIC [µg/mL]
NCCCCC(NC(=O)C(N)CO)C(O)CC(=O)OCC1=C(C(=O)O)N2C(=O)C(NC=O)(NC(=O)CCCC(N)C(=O)O)C2SC1 (centres unmarked) [TAN-591A]	> 100

Test system: Salmonella typhimurium IFO 12529
Assay: as above
Assay type: cell-based
Conditions: Salmonella enterica, hydrochloride, inoculum 1 loopful of about 10^6/ml
Description: as §2, §3, §4, §5, §6, §7

SMILES	MIC [µg/mL]
NCCCCC(NC(=O)C(N)CO)C(O)CC(=O)OCC1=C(C(=O)O)N2C(=O)C(NC=O)(NC(=O)CCCC(N)C(=O)O)C2SC1 (centres unmarked) [TAN-591A]	25 (≈ 37 µM)

Test system: Klebsiella pneumoniae IFO 3317
Assay: as above
Assay type: cell-based
Conditions: IFO3317, hydrochloride, inoculum 1 loopful of about 10^6/ml
Description: as §2, §3, §4, §5, §6, §7

SMILES	MIC [µg/mL]
NCCCCC(NC(=O)C(N)CO)C(O)CC(=O)OCC1=C(C(=O)O)N2C(=O)C(NC=O)(NC(=O)CCCC(N)C(=O)O)C2SC1 (centres unmarked) [TAN-591A]	50 (≈ 74 µM)

Test system: Bacillus subtilis NIHJ PCI 219
Assay: as above
Assay type: cell-based
Conditions: hydrochloride, inoculum 1 loopful of about 10^6/ml
Description: as §2, §3, §4, §5, §6, §7

SMILES	MIC [µg/mL]
NCCCCC(NC(=O)C(N)CO)C(O)CC(=O)OCC1=C(C(=O)O)N2C(=O)C(NC=O)(NC(=O)CCCC(N)C(=O)O)C2SC1 (centres unmarked) [TAN-591A]	12.5 (≈ 18.5 µM)

Test system: Escherichia coli NIHJ JC-2
Assay: as above
Assay type: cell-based
Conditions: NIHJJC2, hydrochloride, inoculum 1 loopful of about 10^6/ml
Description: as §2, §3, §4, §5, §6, §7

SMILES	MIC [µg/mL]
NCCCCC(NC(=O)C(N)CO)C(O)CC(=O)OCC1=C(C(=O)O)N2C(=O)C(NC=O)(NC(=O)CCCC(N)C(=O)O)C2SC1 (centres unmarked) [TAN-591A]	25 (≈ 37 µM)

Test system: Bacillus megaterium IFO 12108
Assay: as above
Assay type: cell-based
Conditions: Priestia megaterium, IFO12108, hydrochloride, inoculum 1 loopful of about 10^6/ml
Description: as §2, §3, §4, §5, §6, §7

SMILES	MIC [µg/mL]
NCCCCC(NC(=O)C(N)CO)C(O)CC(=O)OCC1=C(C(=O)O)N2C(=O)C(NC=O)(NC(=O)CCCC(N)C(=O)O)C2SC1 (centres unmarked) [TAN-591A]	12.5 (≈ 18.5 µM)

Test system: Citrobacter freundii IFO 12681
Assay: as above
Assay type: cell-based
Conditions: IFO12681, hydrochloride, inoculum 1 loopful of about 10^6/ml
Description: as §2, §3, §4, §5, §6, §7

SMILES	MIC [µg/mL]
NCCCCC(NC(=O)C(N)CO)C(O)CC(=O)OCC1=C(C(=O)O)N2C(=O)C(NC=O)(NC(=O)CCCC(N)C(=O)O)C2SC1 (centres unmarked) [TAN-591A]	50 (≈ 74 µM)

Test system: Proteus vulgalis IFO 3988
Assay: as above
Assay type: cell-based
Conditions: hydrochloride, inoculum 1 loopful of about 10^6/ml
Description: as §2, §3, §4, §5, §6, §7

SMILES	MIC [µg/mL]
NCCCCC(NC(=O)C(N)CO)C(O)CC(=O)OCC1=C(C(=O)O)N2C(=O)C(NC=O)(NC(=O)CCCC(N)C(=O)O)C2SC1 (centres unmarked) [TAN-591A]	25 (≈ 37 µM)

Test system: Serratia marcescens IFO 12648
Assay: as above
Assay type: cell-based
Conditions: IFO12648, hydrochloride, inoculum 1 loopful of about 10^6/ml
Description: as §2, §3, §4, §5, §6, §7

SMILES	MIC [µg/mL]
NCCCCC(NC(=O)C(N)CO)C(O)CC(=O)OCC1=C(C(=O)O)N2C(=O)C(NC=O)(NC(=O)CCCC(N)C(=O)O)C2SC1 (centres unmarked) [TAN-591A]	25 (≈ 37 µM)

Test system: Acinetobacter calcoaceticus IFO 12552
Assay: as above
Assay type: cell-based
Conditions: IFO12552, hydrochloride, inoculum 1 loopful of about 10^6/ml
Description: as §2, §3, §4, §5, §6, §7

SMILES	MIC [µg/mL]
NCCCCC(NC(=O)C(N)CO)C(O)CC(=O)OCC1=C(C(=O)O)N2C(=O)C(NC=O)(NC(=O)CCCC(N)C(=O)O)C2SC1 (centres unmarked) [TAN-591A]	1.56 (≈ 2.31 µM)

Test system: Alcaligenes faecalis IFO 13111
Assay: as above
Assay type: cell-based
Conditions: IFO13111, hydrochloride, inoculum 1 loopful of about 10^6/ml
Description: as §2, §3, §4, §5, §6, §7

SMILES	MIC [µg/mL]
NCCCCC(NC(=O)C(N)CO)C(O)CC(=O)OCC1=C(C(=O)O)N2C(=O)C(NC=O)(NC(=O)CCCC(N)C(=O)O)C2SC1 (centres unmarked) [TAN-591A]	6.25 (≈ 9.25 µM)

Test system: Pseudomonas aeruginosa IFO 3080
Assay: as above
Assay type: cell-based
Conditions: IFO3080, hydrochloride, inoculum 1 loopful of about 10^6/ml
Description: as §2, §3, §4, §5, §6, §7

SMILES	MIC [µg/mL]
NCCCCC(NC(=O)C(N)CO)C(O)CC(=O)OCC1=C(C(=O)O)N2C(=O)C(NC=O)(NC(=O)CCCC(N)C(=O)O)C2SC1 (centres unmarked) [TAN-591A]	100 (≈ 148 µM)

Test system: Brevibacterium thiogenitalis ATCC 19240
Assay: as above
Assay type: cell-based
Conditions: Corynebacterium glutamicum, ATCC19240, hydrochloride, inoculum 1 loopful of about 10^6/ml
Description: as §2, §3, §4, §5, §6, §7

SMILES	MIC [µg/mL]
NCCCCC(NC(=O)C(N)CO)C(O)CC(=O)OCC1=C(C(=O)O)N2C(=O)C(NC=O)(NC(=O)CCCC(N)C(=O)O)C2SC1 (centres unmarked) [TAN-591A]	6.25 (≈ 9.25 µM)

Test system: not listed separately
Assay: Solubility in solvents
Assay type: physicochemical
Conditions: dimethylsulfoxide, methanol, acetone, ethyl acetate; hydrochloride

SMILES	Solubility
NCCCCC(NC(=O)C(N)CO)C(O)CC(=O)OCC1=C(C(=O)O)N2C(=O)C(NC=O)(NC(=O)CCCC(N)C(=O)O)C2SC1 (centres unmarked) [TAN-591A]	Sparingly soluble

Same assay, conditions: water, aqueous acetone, aqueous alcohol; hydrochloride

SMILES	Solubility
NCCCCC(NC(=O)C(N)CO)C(O)CC(=O)OCC1=C(C(=O)O)N2C(=O)C(NC=O)(NC(=O)CCCC(N)C(=O)O)C2SC1 (centres unmarked) [TAN-591A]	Easily soluble

Test system: penicillinase
Assay: β-lactamase stability test, growth inhibition zone with penicillinase
Assay type: cell-based
Conditions: penicillinase added; test organism Escherichia coli PG8; drug 100 μg/ml; nutrient agar pH 7.0
Description: as §1

SMILES	diameter of growth inhibition zone [mm]
NCCCCC(NC(=O)C(N)CO)C(O)CC(=O)OCC1=C(C(=O)O)N2C(=O)C(NC=O)(NC(=O)CCCC(N)C(=O)O)C2SC1 (centres unmarked) [TAN-591A]	22

Test system: Escherichia coli 0-111
Assay: Therapeutic effect to infectious disease in mice
Assay type: in vivo
Conditions: Escherichia coli, 0111, sc
Description: The therapeutic effect of TAN-592B.hydrochloride to infectious disease in mice is shown below.
*Intraperitoneal infection
The therapeutic effect of TAN-591A.hydrochloride to infectious disease in mice is shown below.

SMILES	ED50 [mg/kg]
NCCCCC(NC(=O)C(N)CO)C(O)CC(=O)OCC1=C(C(=O)O)N2C(=O)C(NC=O)(NC(=O)CCCC(N)C(=O)O)C2SC1 (centres unmarked) [TAN-591A]	16.2

Test system: not listed separately
Assay: Toxicity after subcutaneous administration to mice
Assay type: in vivo
Conditions: dose of 1 g/kg, hydrochloride
Experimental: When Antibiotic TAN-592B hydrochloride was administered subcutaneously in a dose of 1 g/kg to mice, no death was observed, and therefore Antibiotic TAN-592 is considered to be low in toxicity.
When Antibiotic TAN-591A hydrochloride was administered subcutaneously a dose of 1 g/kg to mice, no death was observed, and therefore Antibiotic TAN-591 is considered to be low in toxicity.

SMILES	death
NCCCCC(NC(=O)C(N)CO)C(O)CC(=O)OCC1=C(C(=O)O)N2C(=O)C(NC=O)(NC(=O)CCCC(N)C(=O)O)C2SC1 (centres unmarked) [TAN-591A]	no death

Test system: cephalosporinase
Assay: β-lactamase stability test, growth inhibition zone with cephalosporinase
Assay type: cell-based
Conditions: cephalosporinase added; test organism Escherichia coli PG8; drug 100 μg/ml; nutrient agar pH 7.0
Description: as §1

SMILES	diameter of growth inhibition zone [mm]
NCCCCC(NC(=O)C(N)CO)C(O)CC(=O)OCC1=C(C(=O)O)N2C(=O)C(NC=O)(NC(=O)CCCC(N)C(=O)O)C2SC1 (centres unmarked) [TAN-591A]	22
